In assay [1] the test system is GLC4/VM20x. Put plainly: Microtiterwell tetrazolium growth-inhibition assay, medium with 40% pooled human plasma. The conditions noted are these: GLC4, 96 h; 4 days; medium with 40% human plasma; 95% CI 5.3-6.5. The format is cell-based. From the text:
Fostriecin (CI-920) is a topoisomerase (topo) II catalytic activity inhibitor (Boritzki et al, 1988) (Figure 1). This novel class of topo II-targeting drugs is considered of potential value for treatment of patients with tumours resistant to classic topo II poisons, including anthracyclines and podophyllotoxins (Cummings and Smyth, 1993). The nuclear enzyme topo II is essential for the regulation of DNA conformation (reviewed in Osheroff et al, 1991). Central in its action is the formation of a complex with DNA. Stabilization of this complex by topo II poisons induces DNA damage and cell death (Froelich-Ammon and Osheroff, 1995). Decreased complex formation due to decreased topo II levels is considered to be an important mechanism of tumour-resistance to topo II poisons (Beck and Danks, 1991). The topo II catalytic inhibitor fostriecin is expected to have increased activity against tumour cells with low topo II levels and this was confirmed in in vitro studies (De Jong et al, 1991). […] Drug pharmacokinetics was analysed with high performance liquid chromatography with UV-detection. […] A metabolite, most probably dephosphorylated fostriecin, was detected in plasma and urine. […]

For assay [2], the system named is murine leukaemia L1210. On the set-up: method as in Leopold et al, 1984. The conditions noted are these: ref Leopold et al, 1984; cited from earlier work.

Broadly, the IC50 is the concentration that inhibits the measured activity by half. Low values mean greater potency, high ones weaker potency. Regarding `C[C@@](O)(/C=C/[C@H]1CC=CC(=O)O1)[C@@H](C[C@@H](O)\C=C/C=C\C=C\CO)OP(=O)(O)O` [fostriecin], in assay [1], the IC50 was 5.9 µM. Further, the “activity against L1210” value in assay [2] is given as “active”.

The values above are taken from publication PMC2362650, “Phase I and pharmacokinetic study of the topoisomerase II catalytic inhibitor fostriecin” (British Journal of Cancer, 1999).
